Results from patent publication US11505575B2, “Cyclic polypeptides for PCSK9 inhibition” (Merck Sharp & Dohme LLC, priority 2018, dated 2022).
*1 amine or outer side, *2 acyl side, *3 side chain or, on linkers, in order; H or OH if unused. Where a SMILES comes first, the peptide text is derived from it. Bridges are numbered along the chain shown (N, C = ends). [ ]: non-standard residue; d: D form. Phe(3-CF3) = N[C@@H](Cc1cccc(C(F)(F)F)c1)C(=O)O; Trp(5-F) = N[C@@H](Cc1c[nH]c2ccc(F)cc12)C(=O)O; Trp(7-aza) = N[C@@H](Cc1c[nH]c2ncccc12)C(=O)O; pY = N[C@@H](Cc1ccc(OP(=O)(O)O)cc1)C(=O)O; pT = C[C@@H](OP(=O)(O)O)[C@H](N)C(=O)O; mXylylene = c1cc(C[*:1])cc(C[*:2])c1; pS = N[C@@H](COP(=O)(O)O)C(=O)O; aThr = C[C@H](O)[C@H](N)C(=O)O; Tle = CC(C)(C)[C@H](N)C(=O)O; αMeV = CC(C)[C@](C)(N)C(=O)O; Aib = CC(C)(N)C(=O)O; Mpa = O=C(O)CCS

How the values were obtained:
Type in all cases: binding
PCSK9 [1] = molecular target: T1, PCSK9 (Homo sapiens, UniProt Q8NBP7); experiment: PCSK9 Alexa FRET Plus assay (displacement of AlexaFluor647-tagged cyclic peptide Reagent B); details: 0.5 nM PCSK9, 960 nM AF cyclic peptide Reagent B
T1 construct: biotin (biotinylated)
T1 sequence (Q8NBP7 153-692): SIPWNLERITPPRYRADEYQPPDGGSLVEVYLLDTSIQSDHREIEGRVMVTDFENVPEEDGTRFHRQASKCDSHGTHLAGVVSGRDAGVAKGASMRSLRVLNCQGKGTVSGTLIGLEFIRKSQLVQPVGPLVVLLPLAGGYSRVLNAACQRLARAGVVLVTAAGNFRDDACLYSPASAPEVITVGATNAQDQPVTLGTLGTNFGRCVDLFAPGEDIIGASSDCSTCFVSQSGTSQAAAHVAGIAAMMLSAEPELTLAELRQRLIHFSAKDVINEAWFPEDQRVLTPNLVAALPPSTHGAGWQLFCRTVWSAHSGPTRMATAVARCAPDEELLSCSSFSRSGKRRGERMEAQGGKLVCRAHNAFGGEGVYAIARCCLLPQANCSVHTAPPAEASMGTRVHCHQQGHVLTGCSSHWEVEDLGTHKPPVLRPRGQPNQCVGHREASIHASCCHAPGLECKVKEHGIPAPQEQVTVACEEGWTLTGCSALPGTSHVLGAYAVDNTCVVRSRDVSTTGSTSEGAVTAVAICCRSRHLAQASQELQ
Protocol: A solution containing 1 nM biotinylated PCSK9+2.5 nM Lance Streptavidin Europium (Strep-Eu) was made in 50 mM HEPES pH 7.4, 0.15 M NaCl, 5 mM CaCl2, 0.01% BSA, and 0.01% Surfactant P20. A separate solution containing 1920 nM of the AlexaFluor tagged cyclic peptide was made in the same buffer system. An Echo was used to transfer 0.075 ul of compound plus 0.675 ul of DMSO to each well of an assay plate followed by the addition of 15 ul of PCSK9+Stept-Eu and 15 ul of AF peptide. The final assay volume was 30.750 ul containing 0.5 nM PCSK9, 1.25 nM Strep-Eu, and 960 nM AF cyclic peptide. The reaction was incubated at room temperature for at least two hours prior to fluorescence measurements using an Envision Multilabel Reader. IC50 values were determined by fitting data to a sigmoidal dose-response curve using nonlinear regression. Ki was then calculated from the IC50 and the KD of AF cyclic peptide. Counts (B-counts) of the europium-labeled PCSK9 were followed to observe if compounds were adversely affecting PCSK9. A fall off of the B-counts likely indicated a false positive of inhibition. Data from this procedure was reported as “P=‘numerical value’ (nanomolar)”

[2] = molecular target: human PCSK9 / human LDLR EGFa domain interaction (Homo sapiens, UniProt Q8NBP7); experiment: TR-FRET assay of inhibition of the PCSK9-LDLR protein-protein interaction; details: 20 nM biotinylated human PCSK9 + 20 nM his-tagged human LDLR EGFa domain, 2 hours room temperature
Sequence of human PCSK9 / human LDLR EGFa domain interaction (Q8NBP7 153-692): as above
Sequence of human PCSK9 / human LDLR EGFa domain interaction (Q8NBP7 31-152 partner limits assumed): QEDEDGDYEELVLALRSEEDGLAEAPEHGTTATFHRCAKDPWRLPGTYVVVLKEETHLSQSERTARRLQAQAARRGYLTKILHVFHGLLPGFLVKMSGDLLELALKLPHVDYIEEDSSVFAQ
Procedure, shortened: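 Biotinylated human PCSK9 (20 nM) and His-tagged human LDLR EGFa domain (20 nM) incubated with Ulight-streptavidin and Eu-anti-His (5 nM each), 2 h at room temperature, in HEPES pH buffer with 5 mM CaCl2. TR-FRET read-out; IC50 from 4-parameter fit of dose-response.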

PCSK9 [3] = molecular target: T1, PCSK9; experiment: PCSK9 Alexa FRET Standard assay (displacement of AlexaFluor647-tagged cyclic peptide Reagent A); details: 0.5 nM PCSK9, 20 nM AF cyclic peptide Reagent A
Protocol: A solution containing 1 nM biotinylated PCSK9+2.5 nM Lance Streptavidin Europium (Strep-Eu) was made in 50 mM HEPES pH 7.4, 0.15 M NaCl, 5 mM CaCl2, 0.01% BSA, and 0.01% Surfactant P20. A separate solution containing 40 nM of the AlexaFluor tagged cyclic peptide was made in the same buffer system. An Echo was used to transfer 0.750 ul of compound to an assay plate followed by the addition of 15 ul of PCSK9+Stept-Eu and 15 ul of AF peptide. The final assay volume was 30.750 ul containing 0.5 nM PCSK9, 1.25 nM Strep-Eu, and 20 nM AF cyclic peptide. The reaction was incubated at room temperature for at least two hours prior to fluorescence measurements using an Envision Multilabel Reader. IC50 values were determined by fitting data to a sigmoidal dose-response curve using nonlinear regression. Ki was then calculated from the IC50 and the KD of AF cyclic peptide. Counts (B-counts) of the europium-labeled PCSK9 were followed to observe if compounds were […]. A fall off of the B-counts likely indicated a false positive of inhibition. Data from this procedure was reported as “A=‘numerical value’ (nanomolar)”

Row | SMILES | IC50 (PCSK9 [1]) [nM] | IC50 [2] [nM] | IC50 (PCSK9 [3]) [nM]
1 | CC1O[C@@H](C)[C@@H]2NC(=O)[C@@]1(C)NC(=O)[C@H](Cc1ccc(OP(=O)(O)O)cc1)NC(=O)[C@H](C)NC(=O)C(C)(C)NC(=O)[C@H](Cc1c[nH]c3ncccc13)NC(=O)[C@H]([C@@H](C)O)NC(=O)[C@@H]1CCCN1C(=O)[C@H](Cc1ccc(O)cc1)NC(=O)[C@H](C(C)(C)C)NC(=O)CCSCc1cccc(c1)CSC[C@@H](C(N)=O)NC2=O (some centres unmarked) [Compound 014] | 1 to 100 | 1 to 100 | 1 to 100
2 | CC(C)[C@]1(C)NC(=O)[C@H](Cc2ccc(O)cc2)NC(=O)[C@H](C)NC(=O)C(C)(C)NC(=O)[C@H](Cc2c[nH]c3ncccc23)NC(=O)[C@H]([C@@H](C)O)NC(=O)[C@@H]2CCCN2C(=O)[C@H](Cc2ccc(O)cc2)NC(=O)[C@H](C(C)(C)C)NC(=O)CCSCc2cccc(c2)CSC[C@@H](C(N)=O)NC(=O)[C@H]([C@@H](C)OP(=O)(O)O)NC1=O [Compound 015] ([Mpa][Tle]YPT[Trp(7-aza)][Aib]AY[αMeV][pT]C-NH2; linker 1-12 via mXylylene) | 1 to 100 | 1 to 100 | 1 to 100
3 | CC(C)[C@]1(C)NC(=O)[C@H](Cc2ccc(O)cc2)NC(=O)[C@H](C)NC(=O)C(C)(C)NC(=O)[C@H](Cc2c[nH]c3ncccc23)NC(=O)[C@H]([C@@H](C)O)NC(=O)[C@@H]2CCCN2C(=O)[C@H](Cc2ccc(O)cc2)NC(=O)[C@H](C(C)(C)C)NC(=O)CCSCc2cccc(c2)CSC[C@@H](C(N)=O)NC(=O)[C@H](COP(=O)(O)O)NC1=O [Compound 016] ([Mpa][Tle]YPT[Trp(7-aza)][Aib]AY[αMeV][pS]C-NH2; linker 1-12 via mXylylene) | 1 to 100 | 1 to 100 | 1 to 100
4 | CC(=O)N[C@H]1CSCc2cccc(c2)CSC[C@H](C(N)=O)NC(=O)[C@H]([C@H](C)O)NC(=O)[C@](C)(C(C)C)NC(=O)[C@H](Cc2ccc(OP(=O)(O)O)cc2)NC(=O)[C@H](C)NC(=O)C(C)(C)NC(=O)[C@H](Cc2c[nH]c3ncccc23)NC(=O)[C@H]([C@@H](C)O)NC(=O)[C@@H]2CCCN2C(=O)[C@H](Cc2ccc(O)cc2)NC(=O)[C@H](C(C)(C)C)NC1=O [Compound 039] (Ac-C[Tle]YPT[Trp(7-aza)][Aib]A[pY][αMeV][aThr][dC]-NH2; linker 1-12 via mXylylene) | 1 to 100 |  | 100 to 1000
5 | CC(=O)N[C@H]1CSCc2cccc(c2)CSC[C@H](C(N)=O)NC(=O)[C@H]([C@H](C)O)NC(=O)[C@](C)(C(C)C)NC(=O)[C@H](Cc2ccc(O)cc2)NC(=O)[C@H](C)NC(=O)C(C)(C)NC(=O)[C@H](Cc2c[nH]c3ncccc23)NC(=O)[C@H]([C@@H](C)O)NC(=O)[C@@H]2CCCN2C(=O)[C@H](Cc2ccccc2)NC(=O)[C@H](C(C)(C)C)NC1=O [Compound 040] (Ac-C[Tle]FPT[Trp(7-aza)][Aib]AY[αMeV][aThr][dC]-NH2; linker 1-12 via mXylylene) | 1 to 100 |  | 1 to 100
6 | CC(=O)N[C@H]1CSCc2cccc(c2)CSC[C@H](C(N)=O)NC(=O)[C@H]([C@H](C)O)NC(=O)[C@](C)(C(C)C)NC(=O)[C@H](Cc2ccc(O)cc2)NC(=O)[C@H](C)NC(=O)C(C)(C)NC(=O)[C@H](Cc2c[nH]c3ncccc23)NC(=O)[C@H]([C@@H](C)O)NC(=O)[C@@H]2CCCN2C(=O)[C@H](Cc2cccc(C(F)(F)F)c2)NC(=O)[C@H](C(C)(C)C)NC1=O [Compound 041] (Ac-C[Tle][Phe(3-CF3)]PT[Trp(7-aza)][Aib]AY[αMeV][aThr][dC]-NH2; linker 1-12 via mXylylene) | 500 to 5000 |  | 21000 to 50000
7 | CC(=O)N[C@H]1CSCc2cccc(c2)CSC[C@H](C(N)=O)NC(=O)[C@H]([C@H](C)O)NC(=O)[C@](C)(C(C)C)NC(=O)[C@H](Cc2ccc(O)cc2)NC(=O)[C@H](C)NC(=O)C(C)(C)NC(=O)[C@H](Cc2c[nH]c3ncccc23)NC(=O)[C@H]([C@@H](C)O)NC(=O)[C@@H]2CCCN2C(=O)[C@H](Cc2c[nH]c3ccc(F)cc23)NC(=O)[C@H](C(C)(C)C)NC1=O [Compound 042] (Ac-C[Tle][Trp(5-F)]PT[Trp(7-aza)][Aib]AY[αMeV][aThr][dC]-NH2; linker 1-12 via mXylylene) | 1 to 100 |  | 1 to 100
